{"source": "paper PMC4464647", "about": "“ANO1 (TMEM16A) in pancreatic ductal adenocarcinoma (PDAC)” (Pflugers Archiv, 2014)", "key": {"Capan-1 cells": {"test_system": "Capan-1 cells", "assay": "BrdU incorporation cell proliferation assay", "format": "cell-based, human", "details": "Capan-1, inhibitor 20 μM, 24 h", "protocol": "(§1) To assess cell proliferation and apoptosis, cells were plated in duplicates on a 96-well plate and incubated in 100 μl of the cell line appropriate media described above. Cells were transfected with siRNA soon after complete attachment (approx. 3 h after seeding). Cells were treated with vehicle, 20 μM gemcitabine, 20 μM T16Ainh-A01, or 10 μM free NS3728 (see below) after culture in a humidified 37 °C and 5 % CO2 incubator overnight. BrdU incorporation was measured using Cell Proliferation ELISA, BrdU (chemiluminescent) (Roche Diagnostics A/S, Denmark) following the manufacturer’s instructions. Caspases 3, 6, and 7 activation was evaluated using Homogeneous Caspases Assay (fluorimetric) (Roche Diagnostics A/S, Denmark).\n(§2) Fig. 7 VRAC, but not ANO1, regulates cellular proliferation. a Summary of BrdU incorporation in HPDE, Capan-1, AsPC-1, and BxPC-3 cells after various treatments as indicated. Cells were transfected shortly after complete attachment (approx. 3 h) and BrdU incorporation was assessed 36 h after transfection. To investigate effect of inhibitors, cells were incubated for 24 h with respective inhibitor. Values shown are relative to appropriate control. Data shown represents mean ± s.e.m. of n = 4–6 individual experiments. **p ≤ 0.01 and ***p ≤ 0.001 when compared with control"}, "CFPAC-1": {"test_system": "CFPAC-1", "set-up": "method as in Mazzone et al. [23]", "details": "CFPAC-1, 10 μM, ref Mazzone et al. [23]; cited from earlier work"}, "HPDE cells": {"test_system": "HPDE cells", "assay": "BrdU incorporation cell proliferation assay", "format": "cell-based, human", "details": "inhibitor 20 μM, 24 h", "protocol": "as §1, §2"}, "[1]": {"test_system": "HPDE, Capan-1, AsPC-1 and BxPC-3 cells", "assay": "Homogeneous caspases assay after gemcitabine treatment", "format": "cell-based, human", "details": "T16Ainh-A01, 24 h", "protocol": "as §1, with “Denmark). […]” for “Denmark).”"}, "ANO1": {"test_system": "ANO1", "assay": "Western blot of ANO1 protein expression after siRNA knockdown", "format": "cell-based, human", "details": "36 h after transfection, β-actin loading control", "protocol": "DharmaFECT 1 Transfection Reagent (Thermo Scientific, Germany) was used for transfection of siRNA targeting ANO1 (50 nM final concentration) or scrambled (5 nM final concentration). Cells were transfected according to the manufacturer’s protocol. Predesigned siRNA oligo was obtained from Sigma-Aldrich (5′-[…][dT][dT]-3′, 5′-[…][dT][dT]-3′) or negative control (Silencer® Negative Control No. 1 siRNA; Ambion, Denmark). ANO1 overexpressing HEK293 cells were generated by adding 0.5 μg/ml mANO1-GFP vector to DMEM containing 1 % v/v penicillin and streptomycin. The mixture was vortexed and incubated for 5 min, and 20 μg/ml polyethylenimine (PEI) was added. The mixture was vortexed again and added drop-wise to 60 % confluent HEK293 cells in DMEM medium containing 5 % v/v FBS and 1 % v/v penicillin and streptomycin after 10 min incubation at room temperature. Media was changed after 4 h incubation at 37 °C and 5 % CO2.\nProtein was isolated from cells 36 h after transfection with siRNA targeting ANO1, in a lysis buffer containing (in mM): 10 Tris–HCl, 10 EDTA, 1 % sodium dodecyl sulfate (SDS), 0.5 % sodium deoxycholate, and 1 % complete protease inhibitor mixture (Roche, Denmark), pH 7.4, and was separated by 7 % SDS-PAGE. Protein was subsequently transferred to nitrocellulose membrane (Novex, Denmark). […]\nFig. 3 ANO1 is the major contributor of CaCC currents in PDAC cells and is sensitive to Cl^− channel inhibitors and siRNA. Whole-cell patch-clamp recordings with 1 μM Ca^2+ in pipette solution. a Representative current traces measured in Capan-1 cells upon exposure to different inhibitors. b Quantification of CaCC currents at +67 mV recorded with inhibitors compared to currents in presence of DMSO; currents of siANO1 cells were compared to those of MOCK transfected cells. c Steady-state I–V relationships of cells transfected with either scrambled siRNA (MOCK) or siRNA targeting ANO1. d Densitometric quantification of Western blot analysis of siRNA knockdown. β-Actin was used as a loading control. […]"}, "AsPC-1 cells": {"test_system": "AsPC-1 cells", "assay": "Scratch wound healing assay", "format": "cell-based, human", "details": "AsPC-1, siRNA 50 nM vs scrambled 5 nM, 5 μM aphidicolin", "protocol": "Cells were seeded into Essen ImageLock 96-well plates. Cells were transfected with siRNA shortly after cells completely attached at 80 % confluency. […] The wound confluence was obtained and analyzed by using the IncuCyte phase-contrast imaging and scratch wound assay system and software (Essen Bioscience, USA). Wound closure was assessed by comparing the mean relative wound density (%RWD) according to the following formula: % RWD = 100 × w(t) − w(0)/[…]. Here, w(t) is the density of wounded area at time t and c(t) is the density of cell region at time t. Each experiment was conducted in triplicates.\nWe therefore assessed a possible contribution of ANO1 in PDAC cell migration using wound healing assay. […] The experiments were conducted in the presence of 5 μM aphidicolin to rule out a possible effect on cell proliferation. […] AsPC-1 cells were therefore not well suited for studies of lateral motility.\nFig. 9 ANO1 supports migration of PDAC cells. Wound healing assay is shown as relative wound density (density of wounded area relative to confluency of cell region) over time. Aphidicolin (5 μM) was added to stop proliferation. a AsPC-1 cells and b BxPC-3 cells after transfection with either scrambled siRNA (5 nM) or siRNA targeting ANO1 (50 nM). c BxPC-3 cells in presence of different inhibitors. Data shown represents mean ± s.e.m. of n = 4 experiments; each run was carried out in triplicates"}}, "note": "d = 2'-deoxy (DNA)"}
{"compound": "CC(C)(C)C1CCc2c(sc(NC(=O)c3ccco3)c2C(=O)O)C1", "note": "(centres unmarked) [CaCCinh-A01, 6-(1,1-dimethylethyl)-2-[(2-furanylcarbonyl)amino]-4,5,6,7-tetrahydrobenzo[b]thiophene-3-carboxylic acid]", "values": [{"measurement": "proliferation (BrdU incorporation)", "setting": "Capan-1 cells", "value": "decreased proliferation in Capan-1 slightly"}]}
{"compound": "CCc1c(C)nc(SCC(=O)Nc2nc(-c3ccc(OC)cc3)cs2)[nH]c1=O", "note": "[T16Ainh-A01, 2-[(5-Ethyl-1,6-dihydro-4-methyl-6-oxo-2-pyrimidinyl)thio]-N-[4-(4-methoxyphenyl)-2-thiazolyl]acetamide]", "values": [{"measurement": "proliferation", "setting": "CFPAC-1", "value": "decrease in proliferation"}, {"measurement": "proliferation (BrdU incorporation)", "setting": "HPDE cells", "value": "showed inhibited proliferation"}, {"measurement": "protection from apoptosis (Caspase-3 activity)", "setting": "[1]", "value": "less pronounced"}]}
{"compound": "siRNA targeting ANO1: Predesigned siRNA oligo from Sigma-Aldrich, 5′-CCUUCAACGUCAGUGACUU[dT][dT]-3′, 5′-AAGUCACUGACGUUGAAGG[dT][dT]-3′ (RNA, 3' dTdT, backbone not given here)", "values": [{"measurement": "ANO1 protein expression decreased to", "setting": "ANO1; AsPC-1 cells", "value": "54 ± 14", "unit": "%"}, {"measurement": "ANO1 protein expression decreased to", "setting": "ANO1; BxPC-3 cells", "value": "20 ± 7", "unit": "%"}, {"measurement": "ANO1 protein expression decreased to", "setting": "ANO1; Capan-1 cells", "value": "37 ± 8", "unit": "%"}, {"measurement": "migration (relative wound density over time)", "setting": "AsPC-1 cells", "value": "significantly decreased migration"}]}
